Measured values reported in paper PMC7613998, “Development of selective inhibitors of phosphatidylinositol 3-kinase C2α” (Nature Chemical Biology, 2022).
Like-named read-outs stand apart in the source and are kept apart here.

Tests used:
Test in all cases: biochemical
[1] = target: PIK3C2A (PI3K-C2 alpha) (Homo sapiens, UniProt O00443); parameters: SelectScreen Adapta purified lipid kinase panel, 1 uM compound, 10 uM ATP, per cent inhibition; details: ATP=10; Technology=Adapta; 10 uM ATP; 1 µM; inhibitor
PIK3C2A (PI3K-C2 alpha), sequence (O00443 whole entry): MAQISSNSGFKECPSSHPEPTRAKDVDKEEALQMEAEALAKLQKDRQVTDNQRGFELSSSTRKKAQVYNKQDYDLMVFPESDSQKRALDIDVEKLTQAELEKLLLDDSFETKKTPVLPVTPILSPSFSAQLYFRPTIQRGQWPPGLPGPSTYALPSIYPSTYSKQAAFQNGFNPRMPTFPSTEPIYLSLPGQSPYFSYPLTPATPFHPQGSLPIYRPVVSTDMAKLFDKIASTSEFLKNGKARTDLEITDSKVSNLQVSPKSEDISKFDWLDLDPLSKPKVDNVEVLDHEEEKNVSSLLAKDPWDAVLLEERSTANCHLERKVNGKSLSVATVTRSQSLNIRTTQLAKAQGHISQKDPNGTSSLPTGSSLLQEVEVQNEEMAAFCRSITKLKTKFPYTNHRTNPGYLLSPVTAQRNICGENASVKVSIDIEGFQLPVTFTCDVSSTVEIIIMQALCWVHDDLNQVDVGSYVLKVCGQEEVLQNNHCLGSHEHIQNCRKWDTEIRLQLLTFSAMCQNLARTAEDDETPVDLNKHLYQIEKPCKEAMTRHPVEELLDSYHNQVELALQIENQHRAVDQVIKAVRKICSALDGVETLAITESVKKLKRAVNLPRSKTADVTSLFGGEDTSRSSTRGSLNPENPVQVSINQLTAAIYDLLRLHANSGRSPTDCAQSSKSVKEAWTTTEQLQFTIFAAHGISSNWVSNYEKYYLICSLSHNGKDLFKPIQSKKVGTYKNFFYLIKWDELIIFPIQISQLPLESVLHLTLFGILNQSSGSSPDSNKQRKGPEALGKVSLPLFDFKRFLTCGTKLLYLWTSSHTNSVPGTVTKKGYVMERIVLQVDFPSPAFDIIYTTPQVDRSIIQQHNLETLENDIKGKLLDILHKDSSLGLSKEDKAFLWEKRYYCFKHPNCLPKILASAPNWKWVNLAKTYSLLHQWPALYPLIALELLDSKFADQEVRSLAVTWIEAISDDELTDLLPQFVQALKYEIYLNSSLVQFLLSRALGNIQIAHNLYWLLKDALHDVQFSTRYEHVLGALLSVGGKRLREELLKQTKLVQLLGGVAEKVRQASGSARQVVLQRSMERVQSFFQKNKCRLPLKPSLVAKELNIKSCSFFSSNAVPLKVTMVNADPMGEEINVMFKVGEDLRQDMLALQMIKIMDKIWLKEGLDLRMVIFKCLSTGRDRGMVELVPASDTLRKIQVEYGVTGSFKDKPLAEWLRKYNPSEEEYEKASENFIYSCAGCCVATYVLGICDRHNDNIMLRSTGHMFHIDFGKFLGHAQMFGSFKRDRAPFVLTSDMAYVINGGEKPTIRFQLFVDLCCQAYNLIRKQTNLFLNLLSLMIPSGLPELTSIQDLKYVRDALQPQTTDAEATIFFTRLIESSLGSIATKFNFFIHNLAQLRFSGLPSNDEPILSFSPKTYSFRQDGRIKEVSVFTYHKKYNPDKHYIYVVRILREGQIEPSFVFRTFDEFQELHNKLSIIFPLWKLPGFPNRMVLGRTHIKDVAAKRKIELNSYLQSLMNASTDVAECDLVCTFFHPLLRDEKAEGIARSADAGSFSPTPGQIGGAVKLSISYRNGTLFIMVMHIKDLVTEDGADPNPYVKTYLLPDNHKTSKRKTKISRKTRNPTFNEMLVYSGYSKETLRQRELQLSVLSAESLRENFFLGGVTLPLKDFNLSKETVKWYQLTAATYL
Method: (§1) As PI3KC2α is related to other PI3Ks and to PI3K-like protein kinases such as mTOR, the selectivity of PITCOINs was determined in a panel of biochemical assays. […] Finally, the high specificity of PITCOINs for PI3KC2α was verified by Kinobead profiling experiments. In this approach, the ability of PITCOINs to compete the affinity capture of cellular kinases on immobilized nonselective kinase inhibitors (Kinobeads) is analyzed by mass spectrometry (MS)[31]. […] Four nonkinase weak off-targets were globally found for the three inhibitors with only FECH[32] common to the three PITCOINs (Supplementary Dataset).  Extended Data Fig. 2 Lipid kinase inhibitor profile of PITCOIN1-3. (a–c) Selectivity profiling of PITCOIN1-3 (1 µM) with purified lipid kinases in the presence of 10 µM ATP. […] Data are presented as mean ± SD from two independent experiments. (d, e) IC50 measurements of PITCOIN1-3 against purified recombinant class I PI3K p110α/p85α (d) or purified class III PI3K VPS34 complex II (e). 10 µM ATP and 20 µM PIP3 (for p110α/p85α) or 200 µM PI (for VPS34 complex II) were used as substrates. […] Data are presented as mean ± SD from two independent experiments. Source data

[2] = target: T1, PIK3C2G (PI3K-C2 gamma) (Homo sapiens, UniProt O75747); parameters: SelectScreen Adapta purified lipid kinase panel, 1 uM compound, 10 uM ATP, per cent inhibition; details: ATP=10; Technology=Adapta; 10 uM ATP
T1 sequence (O75747 1-1486): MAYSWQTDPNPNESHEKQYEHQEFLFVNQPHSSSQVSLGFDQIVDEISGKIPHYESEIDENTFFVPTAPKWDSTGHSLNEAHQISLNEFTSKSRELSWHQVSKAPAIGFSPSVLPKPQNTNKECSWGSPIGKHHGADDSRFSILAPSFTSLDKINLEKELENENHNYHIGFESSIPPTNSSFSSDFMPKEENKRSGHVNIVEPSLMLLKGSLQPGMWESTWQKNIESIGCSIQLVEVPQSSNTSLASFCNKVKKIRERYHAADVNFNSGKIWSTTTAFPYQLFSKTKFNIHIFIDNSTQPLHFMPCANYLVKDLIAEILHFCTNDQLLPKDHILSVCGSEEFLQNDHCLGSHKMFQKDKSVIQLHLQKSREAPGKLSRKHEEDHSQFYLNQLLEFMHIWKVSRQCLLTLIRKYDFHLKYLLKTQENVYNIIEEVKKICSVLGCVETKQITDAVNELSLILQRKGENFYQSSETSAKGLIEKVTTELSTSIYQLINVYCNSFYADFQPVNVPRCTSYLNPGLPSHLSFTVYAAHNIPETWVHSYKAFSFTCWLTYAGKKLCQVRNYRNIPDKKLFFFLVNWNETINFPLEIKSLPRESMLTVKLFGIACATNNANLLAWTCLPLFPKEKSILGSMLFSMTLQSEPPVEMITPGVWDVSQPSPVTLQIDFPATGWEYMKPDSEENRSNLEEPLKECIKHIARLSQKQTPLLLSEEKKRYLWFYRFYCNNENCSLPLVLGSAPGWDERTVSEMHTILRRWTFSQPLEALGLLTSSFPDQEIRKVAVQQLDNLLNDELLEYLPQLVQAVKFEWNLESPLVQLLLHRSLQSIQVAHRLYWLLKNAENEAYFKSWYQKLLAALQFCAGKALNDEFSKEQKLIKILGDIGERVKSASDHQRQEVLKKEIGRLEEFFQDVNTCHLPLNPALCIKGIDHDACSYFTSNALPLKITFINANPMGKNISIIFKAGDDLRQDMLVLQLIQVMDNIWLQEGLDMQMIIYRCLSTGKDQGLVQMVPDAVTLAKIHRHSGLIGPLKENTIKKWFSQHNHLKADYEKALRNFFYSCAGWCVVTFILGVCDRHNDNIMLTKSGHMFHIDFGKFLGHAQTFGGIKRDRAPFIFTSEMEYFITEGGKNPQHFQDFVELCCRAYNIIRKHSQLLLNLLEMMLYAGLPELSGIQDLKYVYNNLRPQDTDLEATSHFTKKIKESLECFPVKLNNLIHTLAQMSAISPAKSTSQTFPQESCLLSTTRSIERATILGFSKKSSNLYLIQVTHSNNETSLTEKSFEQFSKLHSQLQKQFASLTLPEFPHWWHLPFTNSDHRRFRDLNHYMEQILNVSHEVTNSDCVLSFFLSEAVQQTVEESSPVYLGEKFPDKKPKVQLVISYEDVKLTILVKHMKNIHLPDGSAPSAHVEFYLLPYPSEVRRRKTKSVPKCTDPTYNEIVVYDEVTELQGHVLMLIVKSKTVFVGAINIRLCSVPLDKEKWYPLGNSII
Method: as §1

[3] = target: T2, VPS34 complex II (Homo sapiens, UniProt Q8NEB9); parameters: Lipid kinase activity assay on purified class I PI3K or VPS34 complex II, 10 uM ATP
T2 construct: gene PIK3C3
T2 sequence (Q8NEB9 whole entry): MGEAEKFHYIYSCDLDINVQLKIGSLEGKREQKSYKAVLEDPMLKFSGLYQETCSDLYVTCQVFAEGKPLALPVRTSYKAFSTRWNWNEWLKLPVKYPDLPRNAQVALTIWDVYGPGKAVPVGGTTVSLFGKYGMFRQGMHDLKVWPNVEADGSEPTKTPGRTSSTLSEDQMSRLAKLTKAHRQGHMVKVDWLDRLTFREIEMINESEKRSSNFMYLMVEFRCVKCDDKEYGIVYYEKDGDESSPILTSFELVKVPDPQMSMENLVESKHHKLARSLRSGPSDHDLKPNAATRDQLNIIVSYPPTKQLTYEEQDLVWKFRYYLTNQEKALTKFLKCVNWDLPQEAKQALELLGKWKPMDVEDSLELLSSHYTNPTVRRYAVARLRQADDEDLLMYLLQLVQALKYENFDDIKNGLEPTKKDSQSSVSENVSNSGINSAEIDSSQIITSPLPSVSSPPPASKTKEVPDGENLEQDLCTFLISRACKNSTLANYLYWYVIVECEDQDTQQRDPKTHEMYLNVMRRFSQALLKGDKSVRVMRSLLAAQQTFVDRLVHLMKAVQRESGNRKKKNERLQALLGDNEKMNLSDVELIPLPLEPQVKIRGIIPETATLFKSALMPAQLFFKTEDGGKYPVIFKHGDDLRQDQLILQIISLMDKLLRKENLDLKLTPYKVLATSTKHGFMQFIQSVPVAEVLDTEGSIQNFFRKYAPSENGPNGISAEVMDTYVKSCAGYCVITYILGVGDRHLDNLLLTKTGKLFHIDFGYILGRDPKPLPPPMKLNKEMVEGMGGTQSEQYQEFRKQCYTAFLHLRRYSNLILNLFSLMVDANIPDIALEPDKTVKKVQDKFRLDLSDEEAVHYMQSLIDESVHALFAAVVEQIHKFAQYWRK
T2 sequence (Q14457 whole entry partner): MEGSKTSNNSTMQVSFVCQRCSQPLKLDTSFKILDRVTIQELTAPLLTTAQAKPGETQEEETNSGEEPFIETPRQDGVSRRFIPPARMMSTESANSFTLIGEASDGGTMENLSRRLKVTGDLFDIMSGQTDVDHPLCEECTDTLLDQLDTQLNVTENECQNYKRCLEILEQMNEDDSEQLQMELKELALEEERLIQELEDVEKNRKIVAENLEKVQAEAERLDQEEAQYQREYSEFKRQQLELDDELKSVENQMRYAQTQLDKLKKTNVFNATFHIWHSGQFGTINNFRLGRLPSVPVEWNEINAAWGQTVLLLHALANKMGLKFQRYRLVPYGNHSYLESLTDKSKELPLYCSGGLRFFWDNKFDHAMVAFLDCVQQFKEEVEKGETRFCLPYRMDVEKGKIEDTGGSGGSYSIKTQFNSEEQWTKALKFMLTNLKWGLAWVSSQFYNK
T2 sequence (Q99570 whole entry partner): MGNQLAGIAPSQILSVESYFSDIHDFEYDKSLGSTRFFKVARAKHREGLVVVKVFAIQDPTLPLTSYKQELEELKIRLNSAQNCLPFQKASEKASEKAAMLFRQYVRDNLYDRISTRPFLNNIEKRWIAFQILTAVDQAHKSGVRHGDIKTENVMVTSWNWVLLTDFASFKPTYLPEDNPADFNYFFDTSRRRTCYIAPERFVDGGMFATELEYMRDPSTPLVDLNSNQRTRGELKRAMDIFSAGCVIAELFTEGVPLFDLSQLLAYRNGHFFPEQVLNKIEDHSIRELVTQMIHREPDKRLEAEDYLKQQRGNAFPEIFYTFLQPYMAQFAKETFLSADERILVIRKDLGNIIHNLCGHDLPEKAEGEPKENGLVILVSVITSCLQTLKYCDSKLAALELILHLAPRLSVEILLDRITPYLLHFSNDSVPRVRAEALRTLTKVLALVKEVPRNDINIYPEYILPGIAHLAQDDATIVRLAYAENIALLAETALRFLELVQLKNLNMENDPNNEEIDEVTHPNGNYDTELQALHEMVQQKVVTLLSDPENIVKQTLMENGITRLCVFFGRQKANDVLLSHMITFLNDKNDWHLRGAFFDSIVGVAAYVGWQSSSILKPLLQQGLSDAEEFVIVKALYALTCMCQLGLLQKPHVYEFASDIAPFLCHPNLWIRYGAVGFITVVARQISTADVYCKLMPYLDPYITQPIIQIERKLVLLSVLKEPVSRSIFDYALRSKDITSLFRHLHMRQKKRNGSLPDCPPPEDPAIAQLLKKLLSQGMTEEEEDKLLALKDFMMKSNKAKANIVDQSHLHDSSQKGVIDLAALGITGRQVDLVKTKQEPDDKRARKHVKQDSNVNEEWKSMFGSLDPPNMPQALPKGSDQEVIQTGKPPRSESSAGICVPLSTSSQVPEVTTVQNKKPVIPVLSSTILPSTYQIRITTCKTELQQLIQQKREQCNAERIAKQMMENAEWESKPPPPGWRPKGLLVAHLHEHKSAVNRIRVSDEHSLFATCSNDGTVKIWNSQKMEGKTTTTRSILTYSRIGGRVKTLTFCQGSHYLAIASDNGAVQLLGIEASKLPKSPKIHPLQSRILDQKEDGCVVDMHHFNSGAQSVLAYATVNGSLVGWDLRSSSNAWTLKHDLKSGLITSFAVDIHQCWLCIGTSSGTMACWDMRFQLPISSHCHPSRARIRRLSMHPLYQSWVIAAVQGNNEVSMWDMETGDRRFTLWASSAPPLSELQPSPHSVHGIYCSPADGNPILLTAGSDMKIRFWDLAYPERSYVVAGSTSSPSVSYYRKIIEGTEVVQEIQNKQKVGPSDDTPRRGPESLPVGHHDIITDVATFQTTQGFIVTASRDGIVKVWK
T2 sequence (Q9P2Y5 whole entry partner): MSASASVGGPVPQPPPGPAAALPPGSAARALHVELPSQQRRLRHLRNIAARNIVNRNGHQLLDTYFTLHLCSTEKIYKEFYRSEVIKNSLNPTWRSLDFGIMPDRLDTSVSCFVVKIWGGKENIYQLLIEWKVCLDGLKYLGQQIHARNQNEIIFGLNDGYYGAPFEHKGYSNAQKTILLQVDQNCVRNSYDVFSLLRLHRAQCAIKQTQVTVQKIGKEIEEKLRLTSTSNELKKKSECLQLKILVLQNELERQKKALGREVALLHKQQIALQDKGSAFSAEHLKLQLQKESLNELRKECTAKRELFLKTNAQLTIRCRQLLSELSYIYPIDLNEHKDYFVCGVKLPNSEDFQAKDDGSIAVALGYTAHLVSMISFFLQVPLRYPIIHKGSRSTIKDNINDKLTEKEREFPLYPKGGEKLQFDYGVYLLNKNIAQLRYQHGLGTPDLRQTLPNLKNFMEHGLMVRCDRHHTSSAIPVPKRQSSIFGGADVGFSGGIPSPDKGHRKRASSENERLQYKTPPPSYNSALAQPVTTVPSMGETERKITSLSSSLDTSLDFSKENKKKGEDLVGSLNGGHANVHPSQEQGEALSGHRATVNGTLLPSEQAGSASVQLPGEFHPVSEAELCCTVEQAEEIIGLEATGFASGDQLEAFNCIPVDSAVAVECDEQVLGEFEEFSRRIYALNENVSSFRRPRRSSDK
Method: Extended Data Fig. 2 Lipid kinase inhibitor profile of PITCOIN1-3. (a–c) Selectivity profiling of PITCOIN1-3 (1 µM) with purified lipid kinases in the presence of 10 µM ATP. […] Data are presented as mean ± SD from two independent experiments. (d, e) IC50 measurements of PITCOIN1-3 against purified recombinant class I PI3K p110α/p85α (d) or purified class III PI3K VPS34 complex II (e). 10 µM ATP and 20 µM PIP3 (for p110α/p85α) or 200 µM PI (for VPS34 complex II) were used as substrates. […] Data are presented as mean ± SD from two independent experiments. Source data

| Compound | % Inhibition Avg [1] [%] | inhibition at 1 µM [2] [%] | IC50 ([3]; read-out: PITCOIN1 (IC50)) [µM] | IC50 ([3]; read-out: PITCOIN2 (IC50)) [µM] | IC50 ([3]; read-out: PITCOIN3 (IC50)) [µM] |
| --- | --- | --- | --- | --- | --- |
| O=C(CSc1nc2nccnc2c(=O)n1CCc1ccccc1)Nc1nccs1 [compound 1, PITCOIN1] | 88 | 30 | > 10 | – | – |
| O=C(CSc1nc2nccnc2c(=O)n1CCc1ccccc1)Nc1nc(-c2cccc(O)c2)cs1 [compound 2, PITCOIN2] | 87 | 9 | – | > 10 | – |
| CS(=O)(=O)Nc1cccc(-c2csc(NC(=O)CSc3nc4nccnc4c(=O)n3CCc3ccccc3)n2)c1 [compound 3, PITCOIN3] | 83 | 6 | – | – | > 10 |
